Test system: patients with advanced solid tumors
Test: Safety: treatment-emergent and senaparib-related adverse events graded per NCI CTCAE v4.03
Type: in vivo
Protocol: This phase I, open-label, multicenter, dose-escalation, and dose-expansion study was conducted at three national clinical institutions in China. […] At baseline, all patients enrolled in the dose-escalation phase had to have at least one evaluable lesion, and those in the dose-expansion period had to have at least one measurable lesion, according to Response Evaluation Criteria in Solid Tumors version 1.1 (RECIST v1.1).[16] Entry to the dose-expansion cohort required the presence of a BRCA mutation, with the exception of patients with ovarian carcinoma, fallopian tube carcinoma, and primary peritoneal carcinoma. Full study eligibility criteria are provided in Supplementary Table S1.
Dose escalation was conducted using a modified Fibonacci 3 + 3 method (Supplementary Fig. S1).[17] Patients were administered oral senaparib from a planned starting dose of 2 mg once daily (QD), with preliminary dose escalation to 120 mg via nine dose groups, in order of their entry into the study. At a given dose level, each patient received a single dose of senaparib followed by a 7-day washout period. They then entered a continuous dosing period to confirm the safety and PK profile, in which they received senaparib QD from day 1 to day 21 of each 3-week cycle. Progression to the next higher dose required approval from the Data Safety Monitoring Committee (DSMC) upon review of the safety and PK data of the previous dose. A 50-mg twice-daily (BID) dosing group was added (planned enrollment, n = 6 patients) based on a DSMC review of the safety, PK, and efficacy analysis of the completed QD dose groups in the phase I clinical trial of senaparib dose escalation in Australia (NCT03507543), which commenced prior to the start of this trial.
The dose-expansion period included 3 populations: dose groups in which at least one patient achieved complete response (CR) or partial response (PR) per RECIST v1.1[16] and 1 dose group higher (evaluated for safety), as well as the dose group at the maximum tolerated dose (MTD)/recommended phase II dose (RP2D). Each of these groups included those patients in the respective dose-escalation group plus a planned additional 10 patients (approximately 20 patients in the MTD/RP2D group) with BRCA^mut+ solid tumors (ovarian, breast, or prostate cancer were preferred, and ovarian cancer could be BRCA wild type). Patients received senaparib monotherapy orally QD or BID (50-mg dose only) over each 3-week cycle until disease progression or unacceptable toxicity.
DLTs were predefined toxicities (Supplementary Table S2) recorded over the 7 days following the single-dose administration of senaparib and during the first treatment cycle (day 1-day 21) for each dose group in the dose-escalation period only. The MTD was defined as the maximum dose at which ≤1/6 patients experienced a DLT. Senaparib PK parameters were derived from blood samples collected from patients after the single administration, and at regular intervals during the first cycle of the dose-escalation and dose-expansion periods. Plasma concentrations of senaparib were determined using high-performance liquid chromatography-tandem mass spectrometry. Tumor response was assessed every 6 weeks per RECIST v1.1,[16] recording objective response rate (ORR), disease control rate (DCR), duration of response (DOR), and progression-free survival (PFS) by dose level for all patients and for those harboring BRCA^mut+ tumors.

Structure (SMILES): O=C(c1cc(Cn2c(=O)[nH]c(=O)c3c(F)cccc32)ccc1F)N1CCN(c2ncccn2)CC1 [Senaparib]
- Blood creatinine increased TRAE, Gr≥3 (10 mg QD n = 3): 0 n (%)
- Hypokalemia TRAE, All (10 mg QD n = 3): 0 n (%)
- Hypokalemia TRAE, Gr≥3 (10 mg QD n = 3): 0 n (%)
- Nausea TRAE, All (10 mg QD n = 3): 0 n (%)
- Nausea TRAE, Gr≥3 (10 mg QD n = 3): 0 n (%)
- Neutrophil count decreased TRAE, All (10 mg QD n = 3): 0 n (%)
- Neutrophil count decreased TRAE, Gr≥3 (10 mg QD n = 3): 0 n (%)
- Platelet count decreased TRAE, All (10 mg QD n = 3): 0 n (%)
- Platelet count decreased TRAE, Gr≥3 (10 mg QD n = 3): 0 n (%)
- SAEs, events (10 mg QD n = 3): 0 n ev
- SAEs, patients (10 mg QD n = 3): 0 n (%)
- TEAE Grade ≥3, events (10 mg QD n = 3): 0 n ev
- TEAE Grade ≥3, patients (10 mg QD n = 3): 0 n (%)
- TEAEs leading to death, events (10 mg QD n = 3): 0 n ev
- TEAEs leading to death, patients (10 mg QD n = 3): 0 n (%)
- TEAEs leading to dose discontinuation, events (10 mg QD n = 3): 0 n ev
- TEAEs leading to dose discontinuation, patients (10 mg QD n = 3): 0 n (%)
- TEAEs leading to dose interruption, events (10 mg QD n = 3): 0 n ev
- TEAEs leading to dose interruption, patients (10 mg QD n = 3): 0 n (%)
- TEAEs leading to dose reduction, events (10 mg QD n = 3): 0 n ev
- TEAEs leading to dose reduction, patients (10 mg QD n = 3): 0 n (%)
- TRAEs Grade ≥3, events (10 mg QD n = 3): 0 n ev
- TRAEs Grade ≥3, patients (10 mg QD n = 3): 0 n (%)
- TRAEs, patients (10 mg QD n = 3): 3 (100) n (%)
- Vomiting TRAE, All (10 mg QD n = 3): 0 n (%)
- Vomiting TRAE, Gr≥3 (10 mg QD n = 3): 0 n (%)
- WBC decreased TRAE, All (10 mg QD n = 3): 1 (33.3) n (%)
- WBC decreased TRAE, Gr≥3 (10 mg QD n = 3): 0 n (%)
- ALT increased TRAE, All (20 mg QD n = 5): 0 n (%)
- ALT increased TRAE, Gr≥3 (20 mg QD n = 5): 0 n (%)
- AST increased TRAE, All (20 mg QD n = 5): 0 n (%)
- AST increased TRAE, Gr≥3 (20 mg QD n = 5): 0 n (%)
- Anemia TRAE, All (20 mg QD n = 5): 1 (20.0) n (%)
- Anemia TRAE, Gr≥3 (20 mg QD n = 5): 1 (20.0) n (%)
- Any TEAE, All (20 mg QD n = 5): 5 (100) n (%)
- Any TEAE, Gr≥3 (20 mg QD n = 5): 2 (40.0) n (%)
- Any TEAE, events (20 mg QD n = 5): 30 n ev
- Any TEAE, patients (20 mg QD n = 5): 5 (100) n (%)
- Any TRAE, All (20 mg QD n = 5): 3 (60.0) n (%)
- Any TRAE, Gr≥3 (20 mg QD n = 5): 1 (20.0) n (%)
- Appetite decreased TRAE, All (20 mg QD n = 5): 0 n (%)
- Appetite decreased TRAE, Gr≥3 (20 mg QD n = 5): 0 n (%)
- Asthenia TRAE, All (20 mg QD n = 5): 1 (20.0) n (%)
- Asthenia TRAE, Gr≥3 (20 mg QD n = 5): 0 n (%)
- Blood bilirubin increased TRAE, All (20 mg QD n = 5): 0 n (%)
- Blood bilirubin increased TRAE, Gr≥3 (20 mg QD n = 5): 0 n (%)
- Blood creatinine increased TRAE, All (20 mg QD n = 5): 1 (20.0) n (%)
- Blood creatinine increased TRAE, Gr≥3 (20 mg QD n = 5): 0 n (%)
- Hypokalemia TRAE, All (20 mg QD n = 5): 1 (20.0) n (%)
- Hypokalemia TRAE, Gr≥3 (20 mg QD n = 5): 0 n (%)
- Nausea TRAE, All (20 mg QD n = 5): 1 (20.0) n (%)
- Nausea TRAE, Gr≥3 (20 mg QD n = 5): 0 n (%)
- Neutrophil count decreased TRAE, All (20 mg QD n = 5): 0 n (%)
- Neutrophil count decreased TRAE, Gr≥3 (20 mg QD n = 5): 0 n (%)
- Platelet count decreased TRAE, All (20 mg QD n = 5): 1 (20.0) n (%)
- Platelet count decreased TRAE, Gr≥3 (20 mg QD n = 5): 0 n (%)
- SAEs, events (20 mg QD n = 5): 1 n ev
- SAEs, patients (20 mg QD n = 5): 1 (20.0) n (%)
- TEAE Grade ≥3, events (20 mg QD n = 5): 3 n ev
- TEAE Grade ≥3, patients (20 mg QD n = 5): 2 (40.0) n (%)
- TEAEs leading to death, events (20 mg QD n = 5): 1 n ev
- TEAEs leading to death, patients (20 mg QD n = 5): 1 (20.0) n (%)
- TEAEs leading to dose discontinuation, events (20 mg QD n = 5): 2 n ev
- TEAEs leading to dose discontinuation, patients (20 mg QD n = 5): 2 (40.0) n (%)
- TEAEs leading to dose interruption, events (20 mg QD n = 5): 1 n ev
- TEAEs leading to dose interruption, patients (20 mg QD n = 5): 1 (20.0) n (%)
- TEAEs leading to dose reduction, events (20 mg QD n = 5): 0 n ev
- TEAEs leading to dose reduction, patients (20 mg QD n = 5): 0 n (%)
- TRAEs Grade ≥3, events (20 mg QD n = 5): 1 n ev
- TRAEs Grade ≥3, patients (20 mg QD n = 5): 1 (20.0) n (%)
- TRAEs, events (20 mg QD n = 5): 15 n ev
- TRAEs, patients (20 mg QD n = 5): 3 (60.0) n (%)
- Vomiting TRAE, All (20 mg QD n = 5): 0 n (%)
- Vomiting TRAE, Gr≥3 (20 mg QD n = 5): 0 n (%)
- WBC decreased TRAE, All (20 mg QD n = 5): 1 (20.0) n (%)
- WBC decreased TRAE, Gr≥3 (20 mg QD n = 5): 0 n (%)
- ALT increased TRAE, All (40 mg QD n = 3): 0 n (%)
- ALT increased TRAE, Gr≥3 (40 mg QD n = 3): 0 n (%)
- AST increased TRAE, All (40 mg QD n = 3): 0 n (%)
- AST increased TRAE, Gr≥3 (40 mg QD n = 3): 0 n (%)
- Anemia TRAE, All (40 mg QD n = 3): 1 (33.3) n (%)
- Anemia TRAE, Gr≥3 (40 mg QD n = 3): 0 n (%)
- Any TEAE, All (40 mg QD n = 3): 3 (100) n (%)
- Any TEAE, Gr≥3 (40 mg QD n = 3): 0 n (%)
- Any TEAE, events (40 mg QD n = 3): 7 n ev
- Any TEAE, patients (40 mg QD n = 3): 3 (100) n (%)
- Any TRAE, All (40 mg QD n = 3): 3 (100) n (%)
- Any TRAE, Gr≥3 (40 mg QD n = 3): 0 n (%)
- Appetite decreased TRAE, All (40 mg QD n = 3): 0 n (%)
- Appetite decreased TRAE, Gr≥3 (40 mg QD n = 3): 0 n (%)
- Asthenia TRAE, All (40 mg QD n = 3): 1 (33.3) n (%)
- Asthenia TRAE, Gr≥3 (40 mg QD n = 3): 0 n (%)
- Blood bilirubin increased TRAE, All (40 mg QD n = 3): 0 n (%)
- Blood bilirubin increased TRAE, Gr≥3 (40 mg QD n = 3): 0 n (%)
- Blood creatinine increased TRAE, All (40 mg QD n = 3): 1 (33.3) n (%)
- Blood creatinine increased TRAE, Gr≥3 (40 mg QD n = 3): 0 n (%)
- Hypokalemia TRAE, All (40 mg QD n = 3): 0 n (%)
- Hypokalemia TRAE, Gr≥3 (40 mg QD n = 3): 0 n (%)
- Nausea TRAE, All (40 mg QD n = 3): 0 n (%)
- Nausea TRAE, Gr≥3 (40 mg QD n = 3): 0 n (%)
- Neutrophil count decreased TRAE, All (40 mg QD n = 3): 0 n (%)
- Neutrophil count decreased TRAE, Gr≥3 (40 mg QD n = 3): 0 n (%)
- Platelet count decreased TRAE, All (40 mg QD n = 3): 0 n (%)
- Platelet count decreased TRAE, Gr≥3 (40 mg QD n = 3): 0 n (%)
- SAEs, events (40 mg QD n = 3): 0 n ev
- SAEs, patients (40 mg QD n = 3): 0 n (%)
- TEAE Grade ≥3, events (40 mg QD n = 3): 0 n ev
- TEAE Grade ≥3, patients (40 mg QD n = 3): 0 n (%)
- TEAEs leading to death, events (40 mg QD n = 3): 0 n ev
- TEAEs leading to death, patients (40 mg QD n = 3): 0 n (%)
- TEAEs leading to dose discontinuation, events (40 mg QD n = 3): 0 n ev
- TEAEs leading to dose discontinuation, patients (40 mg QD n = 3): 0 n (%)
- TEAEs leading to dose interruption, events (40 mg QD n = 3): 0 n ev
- TEAEs leading to dose interruption, patients (40 mg QD n = 3): 0 n (%)
- TEAEs leading to dose reduction, events (40 mg QD n = 3): 0 n ev
- TEAEs leading to dose reduction, patients (40 mg QD n = 3): 0 n (%)
